Measurements reported in patent US12168067B2, “Photostable antioxidant cosmetic composition” (priority 2019, dated 2024).

Experiment: Solution-based assay: residual trans-polydatin after irradiation with 1 molar equivalent of isomerization stabilizer
Type: physicochemical
Details: for Average of Relative Residual Trans-polydatin (percent): 0.5% by weight trans-polydatin in solution + 1 molar equivalent stabilizer, irradiated at 365 nm, 5 J total energy, HPLC-UV, per stabilizer; for Photo-stabilization of trans-polydatin in solution (in words): 365 nm, 5 J, comment on Table 2
Experimental: The stabilization of polydatin was evaluated in a solution-based assay where residual trans-polydatin percentage was determined after exposure to radiation. According to the experimental method, trans-polydatin was dissolved in an appropriate solvent at 0.5% by weight. To this solution was added 1 molar equivalent of an isomerization stabilizer. An aliquot of the resulting solution was diluted with methanol and the amount of trans-polydatin was quantified by HPLC-UV. The solution containing trans-polydatin and the additive was irradiated under controlled conditions at 365 nm using 5 J of total energy. An aliquot of the irradiated solution was diluted in methanol and the amount of trans-polydatin was quantified by HPLC-UV. The residual trans-polydatin was calculated by dividing the quantified amount of trans-polydatin obtained from the irradiated solution by the amount of trans-polydatin obtained from the non-irradiated solution and is expressed as a percentage. The relative residual is indicated for each photoisomerization stabilizer and is calculated as an average relative residual for classes of photoisomerization stabilizers where indicated.

| Compound | Average of Relative Residual Trans-polydatin (percent) [%] | Photo-stabilization of trans-polydatin in solution (in words) |
| --- | --- | --- |
| O=c1cc(-c2ccc(O)cc2)oc2cc(O)cc(O)c12 [Apigenin] | 66.7 | – |
| Cc1cc(C(C)(C)C)c(O)c(C(C)(C)C)c1 [BHT, tert-butylhydroxytoluene] | −3.1 | ineffective |
| O=c1cc(-c2ccccc2)oc2cc(O)c(O)c(O)c12 [Baicalein] | 42.9 | – |
| O=C(O)[C@H]1O[C@@H](Oc2cc3oc(-c4ccccc4)cc(=O)c3c(O)c2O)[C@H](O)[C@@H](O)[C@@H]1O [Baicalin] | 32.3 | – |
| O=C(O[C@@H]1Cc2c(O)cc(O)cc2O[C@@H]1c1cc(O)c(O)c(O)c1)c1cc(O)c(O)c(O)c1 [Epigallocatechine gallate] | 0.4 | – |
| COc1cc(/C=C/C(=O)O)ccc1O [Ferulic acid] | 35.5 | – |
| O=C(O)c1cc(O)c(O)c(O)c1 [Gallic acid] | −0.3 | ineffective |
| COc1ccc([C@@H]2CC(=O)c3c(O)cc(O)cc3O2)cc1O [Hesperetin] | 30.6 | – |
| COc1ccc([C@@H]2CC(=O)c3c(O)cc(O[C@@H]4O[C@H](CO[C@@H]5O[C@@H](C)[C@H](O)[C@@H](O)[C@H]5O)[C@@H](O)[C@H](O)[C@H]4O)cc3O2)cc1O [Hesperidine] | 41.6 | – |
| O=c1cc(-c2ccc(O)c(O)c2)oc2cc(O)cc(O)c12 [Luteolin] | 63.3 | – |
| O=C(O)C(O)c1ccccc1 (stereo not drawn) [Mandelic acid] | −0.9 | ineffective |
| NC(=O)c1cccnc1 [Niacinamide] | −0.3 | ineffective |
| O=c1c(O)c(-c2ccc(O)c(O)c2)oc2cc(O)cc(O)c12 [Quercetin] | 24.8 | – |
| O=C1c2c(O)cc(O)cc2O[C@H](c2ccc(O)c(O)c2)[C@H]1O [Taxifolin] | 38.3 | – |
| O=C1O[C@H]([C@@H](O)CO)C(O)=C1O[C@H]1O[C@H](CO)[C@@H](O)[C@H](O)[C@H]1O [Vitamin CG] | 6.9 | ineffective |
| O=C(O)/C=C/c1ccc(O)cc1 [p-coumaric acid] | 38.6 | – |
| Glycosyl Hesperidin | 31.0 | – |
| Vitamin E | 0.6 | ineffective |
